Results on 1 compound are retold here after patent US3983230A, “Antibiotic siomycin A derivatives and production thereof” (priority 1973, dated 1976).

SMILES strings stand for the structures. In brackets after ≈: the same amount, converted by molar mass. Like-named read-outs stand apart in the source and are kept apart here.

In data set [1] the test system is Streptococcus pyogenes C-203. Put plainly: Minimum inhibitory concentration, Streptococcus pyogenes C-203. In kind it is cell-based.
In data set [2] the test system is Bacillus subtilis PCI 219. Put plainly: Minimum inhibitory concentration, Bacillus subtilis PCI 219. The class given is cell-based.
The conditions of data set [3]: background, cited from earlier work.
Data set [4] concerns Diplococcus pneumoniae type I. The data set is described as follows: Minimum inhibitory concentration, Diplococcus pneumoniae type I. The class given is cell-based.
For data set [5], the system named is Streptococcus pyogenes C-203. The data set is described as follows: Therapeutic effect in mice infected with Streptococcus pyogenes C-203. In kind it is in vivo. As to conditions: i.p. infection with Streptococcus pyogenes C-203, subcutaneous at 0, 4 and 8 hours, survival 7 days. Here is the method:
(§1) The therapeutic effect of sodium salts of the half ester of siomycin A with dicarboxylic acid in mice against experimental infections are shown in Table 3.
(§2) A group of 10 mice weighing 19-21 g were infected with a standardized inoculum of Diplococcus pneumoniae type or Streptococcus pyogenes C-203 by intraperitoneal injection.
(§3) The sodium salts of half esters of siomycin A with the dicarboxylic acid were administered subcutaneously to the mice at 0, 4 and 8 hours after infection and survival of infected mice was examined for 7 days after infection.

Data set [6] concerns Staphylococcus aureus FDA 219PJC-1. Put plainly: Minimum inhibitory concentration, Staphylococcus aureus FDA 219PJC-1. The class given is cell-based.
Data set [7] has as its system Bacillus anthracis. The class given is cell-based.
In data set [8] the test system is gram-positive bacteria. Put plainly: Antibacterial activity against gram-positive bacteria. The class given is cell-based. An excerpt:
The half esters of siomycin A and salts thereof show activities against a variety of microorganisms.

A short description of data set [9]: Qualitative solubility in various solvents (text, Examples).
Data set [10] has as its system Diplococcus pneumoniae type I. The data set is described as follows: Therapeutic effect in mice infected with Diplococcus pneumoniae type I. In kind it is in vivo. As to conditions: i.p. infection with Diplococcus pneumoniae type I, subcutaneous at 0, 4 and 8 hours, survival 7 days. Here is the method: as §1, §2, §3
The test system of data set [11] is Staphylococcus aureus 80257. The data set is described as follows: Minimum inhibitory concentration, Staphylococcus aureus 80257. The class given is cell-based.
A short description of data set [12]: Solubility in 0.1% aqueous sodium hydrogencarbonate (distilled water for sodium salts), Table 1. As to conditions: 0.1% aqueous solution of sodium hydrogencarbonate. The class given is physicochemical. From the text:
The solubility in various solvents of several specific products obtained by the process of the present invention are shown in Table 1 in comparison with the solubility of siomycin A.

One may read the ED50 as the midpoint of the dose-response relation. A high value points to a need for a large dose. For `C=C(NC(=O)C(=C)NC(=O)c1csc(C2=N[C@@H]3c4csc(n4)[C@H]4NC(=O)c5csc(n5)[C@H]([C@](C)(O)[C@@H](C)O)NC(=O)[C@H]5CSC(=N5)/C(=C/C)NC(=O)[C@H]([C@@H](C)O)NC(=O)c5csc(n5)[C@]3(CC2)NC(=O)[C@H](C)NC(=O)C(=C)NC(=O)C(=C)NC(=O)[C@H](C(C)C)N[C@@H]2C=Cc3c([C@H](C)O)cc(nc3[C@H]2O)C(=O)O[C@@H]4C)n1)C(N)=O` [Siomycin A, siomycin A], the Minimum inhibitory concentration in [1] is 0.1 µg/mL (≈ 0.0606 µM); in data set [2], 0.39 µg/mL (≈ 0.237 µM); in data set [4], 0.1 µg/mL (≈ 0.0606 µM); in data set [6] it was 0.39 µg/mL (≈ 0.237 µM); in [7], 0.78 µg/mL (≈ 0.473 µM); in [11] it was 0.39 µg/mL (≈ 0.237 µM). For the same compound, the Solubility result in [3] (butanol) is on record as “slightly soluble”; in data set [3] (chloroform), “slightly soluble”; in data set [3] (dioxane), “soluble”; in data set [3] (ethanol), “slightly soluble”; in data set [3] (methanol), “slightly soluble”; in [3] (water), “almost insoluble”. In addition, the Solubility result in data set [9] (dilute alkaline solution) is “almost insoluble”; in data set [9] (water), “almost insoluble”; in data set [12] it was 0.00015%. In addition, the median effective dose (ED50) in [5] is given as 75.2 mg/kg; in data set [10], 23.2 mg/kg. Also, the “minimum inhibitory concentration against gram-positive bacteria” value in [8] lay within 0.1 to 0.78 µg/mL.
